According to US20230071978A1, “METHOD FOR TREATING IDH1 INHIBITOR-RESISTANT SUBJECTS” (Eli Lilly and Company, priority 2020, published 2023):

Key:
[1] = biological target: T1, R132H mutant IDH1 (Homo sapiens, UniProt O75874, R132H); assay: 2-HG cell-based inhibition assay, U87MG R132H; settings: Cell line construct U87MG R132H; 2-HG by LC-MS
T1 construct: myc; expressed in transfected cells; host or cells: Ba/F3 (DSMZ ACC 300), stably transfected
Protocol: (§1) Compounds and Formulation. […] DMSO preps are further diluted with cell culture media prior to addition in the assay.
(§2) Cell lines. U-87 MG cells (ATCC, HTB-14) are cultured and assayed in MEM (Gibco, 11095) with 2 mM GlutaMAX (Gibco, 35050), 1 mM Pyruvate (Gibco, 11360), 0.1 mM NEAA ((Non-essential amino acid) Gibco, 11140) and 10% dialyzed FBS (Fetal bovine serum) (Gibco, 26400). Ba/F3 cells (DSMZ, ACC 300) are cultured and assayed in RPMI 1640 (Gibco, 22400) with 10% heat inactivated FBS (Gibco, 10082-147) and 10 ng/ml mouse IL3 (R&D systems, 403-ML-025).
(§3) Cell-based inhibition assays. Cell-based assays are performed by measuring 2-HG in either U-87 MG cells or Ba/F3 cells in which IDH mutations are expressed.
(§4) DNA constructs encoding IDH1 mutations are introduced into U-87 MG cells using transfection (Promega FuGENE HD, E2311) or lentiviral transduction, and the IDH-mutant expressing cell lines are selected using blasticidin (5 μg/ml) or puromycin (1 μg/ml). […]
(§5) LC-MS metabolite analysis of conditioned media and cell lysates. The effect of inhibitors on the concentrations of 2-HG are determined by liquid chromatography-mass spectrometry (LC-MS) analysis of cell lysates or conditioned media using either a derivatization method or an ion-pairing method as described below. […]

[2] = biological target: T2, R132H_S280F mutant IDH1 (Homo sapiens, UniProt O75874, R132H/S280F); assay: 2-HG cell-based inhibition assay, U87MG R132H_S280F; settings: Cell line construct U87MG R132H_S280F; 2-HG by LC-MS
T2 construct: myc; expressed in transfected cells; host or cells: Ba/F3 (DSMZ ACC 300), stably transfected
Protocol: as §1, §2, §3, §4, §5

[3] = biological target: T3, R132C_S280F mutant IDH1 (Homo sapiens, UniProt O75874, R132C/S280F); assay: 2-HG cell-based inhibition assay, U87MG R132C_S280F; settings: Cell line construct U87MG R132C_S280F; 2-HG by LC-MS
T3 construct: myc; expressed in transfected cells; host or cells: Ba/F3 (DSMZ ACC 300), stably transfected
Protocol: as §1, §2, §3, §4, §5

[4] = biological target: T1, R132H mutant IDH1; assay: 2-HG cell-based inhibition assay, Ba/F3 R132H; settings: Cell line construct Ba/F3 R132H; 2-HG in conditioned media by LC-MS
Protocol: as §1, §3
Ba/F3 cells are transfected with DNA constructs encoding IDH1R132H-myc, IDH1R132H_S280E-myc, or IDH1R132C_S280E-myc constructs using NEON Transfection system (Life Technologies, MPK10025) and isolated using Puromycin (2 μg/mL) or Blasticidin (10 μg/mL). Stably transfected lines are used for inhibitor assays. […] Cells are treated with serial dilutions of the desired compounds in standard growth media. Plates are incubated in a mammalian cell culture incubator (humidified, 37° C., 5% CO2) for the desired time (72 or 96 hours). Following the incubation period, conditioned media from each well is collected for 2-HG analysis by LC-MS.
LC-MS metabolite analysis of conditioned media and cell lysates. The effect of inhibitors on the concentrations of 2-HG are determined by liquid chromatography-mass spectrometry (LC-MS) analysis of cell lysates or conditioned media using either a derivatization method or an ion-pairing method as described below.
For the derivatization LC-MS method, calibration curves are prepared by spiking 2-HG and α-KG into cell culture media and cell lysis buffer respectively. […]

[5] = biological target: T2, R132H_S280F mutant IDH1; assay: 2-HG cell-based inhibition assay, Ba/F3 R132H_S280F; settings: Cell line construct Ba/F3 R132H_S280F; 2-HG in conditioned media by LC-MS
[6] = biological target: T3, R132C_S280F mutant IDH1; assay: 2-HG cell-based inhibition assay, Ba/F3 R132C_S280F; settings: Cell line construct Ba/F3 R132C_S280F; 2-HG in conditioned media by LC-MS
[7] = biological target: T4, IDH1R132H_H315D cis (Homo sapiens, UniProt O75874, H315D/R132H); assay: 2-HG cell-based inhibition assay, U87MG IDH1R132H_H315D cis; settings: Cell line construct U87MG IDH1R132H_H315D cis; 2-HG by LC-MS
T4 construct: expressed in transfected cells; host or cells: U-87 MG (ATCC HTB-14)
Protocol: as §1, §2, §3, §4, §5

[8] = biological target: T5, IDH1R132H_R119P cis (Homo sapiens, UniProt O75874, R119P/R132H); assay: 2-HG cell-based inhibition assay, U87MG IDH1R132H_R119P cis; settings: Cell line construct U87MG IDH1R132H_R119P cis; 2-HG by LC-MS
T5 construct: expressed in transfected cells; host or cells: U-87 MG (ATCC HTB-14)
Protocol: as §1, §2, §3, §4, §5

[9] = biological target: T6, IDH1R132H_G131A cis (Homo sapiens, UniProt O75874, G131A/R132H); assay: 2-HG cell-based inhibition assay, U87MG IDH1R132H_G131A cis; settings: Cell line construct U87MG IDH1R132H_G131A cis; 2-HG by LC-MS
T6 construct: expressed in transfected cells; host or cells: U-87 MG (ATCC HTB-14)
Protocol: as §1, §2, §3, §4, §5

[10] = biological target: T7, IDH1R132H_D279N cis (Homo sapiens, UniProt O75874, D279N/R132H); assay: 2-HG cell-based inhibition assay, U87MG IDH1R132H_D279N cis; settings: Cell line construct U87MG IDH1R132H_D279N cis; 2-HG by LC-MS
T7 construct: expressed in transfected cells; host or cells: U-87 MG (ATCC HTB-14)
Protocol: as §1, §2, §3, §4, §5

[11] = biological target: T8, IDH1R132C_H315D cis (Homo sapiens, UniProt O75874, H315D/R132C); assay: 2-HG cell-based inhibition assay, U87MG IDH1R132C_H315D cis; settings: Cell line construct U87MG IDH1R132C_H315D cis; 2-HG by LC-MS
T8 construct: expressed in transfected cells; host or cells: U-87 MG (ATCC HTB-14)
Protocol: as §1, §2, §3, §4, §5

[12] = biological target: T9, IDH1R132C_R119P cis (Homo sapiens, UniProt O75874, R119P/R132C); assay: 2-HG cell-based inhibition assay, U87MG IDH1R132C_R119P cis; settings: Cell line construct U87MG IDH1R132C_R119P cis; 2-HG by LC-MS
T9 construct: expressed in transfected cells; host or cells: U-87 MG (ATCC HTB-14)
Protocol: as §1, §2, §3, §4, §5

[13] = biological target: T10, IDH1R132C_G289D cis (Homo sapiens, UniProt O75874, G289D/R132C); assay: 2-HG cell-based inhibition assay, U87MG IDH1R132C_G289D cis; settings: Cell line construct U87MG IDH1R132C_G289D cis; 2-HG by LC-MS
T10 construct: expressed in transfected cells; host or cells: U-87 MG (ATCC HTB-14)
Protocol: as §1, §2, §3, §4, §5

[14] = biological target: T11, IDH1R132C_G131A cis (Homo sapiens, UniProt O75874, G131A/R132C); assay: 2-HG cell-based inhibition assay, U87MG IDH1R132C_G131A cis; settings: Cell line construct U87MG IDH1R132C_G131A cis; 2-HG by LC-MS
T11 construct: expressed in transfected cells; host or cells: U-87 MG (ATCC HTB-14)
Protocol: as §1, §2, §3, §4, §5

[15] = biological target: T12, IDH1R132C_D279N cis (Homo sapiens, UniProt O75874, D279N/R132C); assay: 2-HG cell-based inhibition assay, U87MG IDH1R132C_D279N cis; settings: Cell line construct U87MG IDH1R132C_D279N cis; 2-HG by LC-MS
T12 construct: expressed in transfected cells; host or cells: U-87 MG (ATCC HTB-14)
Protocol: as §1, §2, §3, §4, §5

[16] = biological target: T13, IDH1R132L_H315D cis (Homo sapiens, UniProt O75874, H315D/R132L); assay: 2-HG cell-based inhibition assay, U87MG IDH1R132L_H315D cis; settings: Cell line construct U87MG IDH1R132L_H315D cis; 2-HG by LC-MS
T13 construct: expressed in transfected cells; host or cells: U-87 MG (ATCC HTB-14)
Protocol: as §1, §2, §3, §4, §5

[17] = biological target: T14, IDH1R132L_R119P cis (Homo sapiens, UniProt O75874, R119P/R132L); assay: 2-HG cell-based inhibition assay, U87MG IDH1R132L_R119P cis; settings: Cell line construct U87MG IDH1R132L_R119P cis; 2-HG by LC-MS
T14 construct: expressed in transfected cells; host or cells: U-87 MG (ATCC HTB-14)
Protocol: as §1, §2, §3, §4, §5

[18] = biological target: T15, IDH1R132L_G289D cis (Homo sapiens, UniProt O75874, G289D/R132L); assay: 2-HG cell-based inhibition assay, U87MG IDH1R132L_G289D cis; settings: Cell line construct U87MG IDH1R132L_G289D cis; 2-HG by LC-MS
T15 construct: expressed in transfected cells; host or cells: U-87 MG (ATCC HTB-14)
Protocol: as §1, §2, §3, §4, §5

[19] = biological target: T16, IDH1R132L_G131A cis (Homo sapiens, UniProt O75874, G131A/R132L); assay: 2-HG cell-based inhibition assay, U87MG IDH1R132L_G131A cis; settings: Cell line construct U87MG IDH1R132L_G131A cis; 2-HG by LC-MS
T16 construct: expressed in transfected cells; host or cells: U-87 MG (ATCC HTB-14)
Protocol: as §1, §2, §3, §4, §5

[20] = biological target: T17, IDH1R132L_S280F cis (Homo sapiens, UniProt O75874, R132L/S280F); assay: 2-HG cell-based inhibition assay, U87MG IDH1R132L_S280F cis; settings: Cell line construct U87MG IDH1R132L_S280F cis; 2-HG by LC-MS
T17 construct: expressed in transfected cells; host or cells: U-87 MG (ATCC HTB-14)
Protocol: as §1, §2, §3, §4, §5

[21] = biological target: T18, IDH1R132L_D279N cis (Homo sapiens, UniProt O75874, D279N/R132L); assay: 2-HG cell-based inhibition assay, U87MG IDH1R132L_D279N cis; settings: Cell line construct U87MG IDH1R132L_D279N cis; 2-HG by LC-MS
T18 construct: expressed in transfected cells; host or cells: U-87 MG (ATCC HTB-14)
Protocol: as §1, §2, §3, §4, §5

T1 sequence (O75874 whole entry R132H): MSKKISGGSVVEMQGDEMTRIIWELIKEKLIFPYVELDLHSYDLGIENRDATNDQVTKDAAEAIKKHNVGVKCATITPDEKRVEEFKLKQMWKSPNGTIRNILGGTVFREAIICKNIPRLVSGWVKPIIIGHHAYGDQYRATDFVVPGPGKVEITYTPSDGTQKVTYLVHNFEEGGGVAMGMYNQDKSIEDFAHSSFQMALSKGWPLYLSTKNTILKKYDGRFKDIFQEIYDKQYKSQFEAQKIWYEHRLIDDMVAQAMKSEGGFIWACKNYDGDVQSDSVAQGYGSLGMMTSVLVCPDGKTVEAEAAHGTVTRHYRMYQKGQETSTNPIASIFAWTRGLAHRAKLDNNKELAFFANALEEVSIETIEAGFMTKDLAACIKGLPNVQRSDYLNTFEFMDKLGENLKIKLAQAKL
T2 sequence (O75874 whole entry R132H/S280F): as the sequence (O75874 whole entry R132H) above, with S280F counted along it
T3 sequence (O75874 whole entry R132C/S280F): as the sequence (O75874 whole entry R132H) above, with H132C, S280F counted along it
T18 sequence (O75874 whole entry R132L/D279N): as the sequence (O75874 whole entry R132H) above, with H132L, D279N counted along it
T10 sequence (O75874 whole entry R132C/G289D): as the sequence (O75874 whole entry R132H) above, with H132C, G289D counted along it
T14 sequence (O75874 whole entry R119P/R132L): as the sequence (O75874 whole entry R132H) above, with R119P, H132L counted along it
T15 sequence (O75874 whole entry R132L/G289D): as the sequence (O75874 whole entry R132H) above, with H132L, G289D counted along it
T7 sequence (O75874 whole entry R132H/D279N): as the sequence (O75874 whole entry R132H) above, with D279N counted along it
T4 sequence (O75874 whole entry R132H/H315D): as the sequence (O75874 whole entry R132H) above, with H315D counted along it
T5 sequence (O75874 whole entry R119P/R132H): as the sequence (O75874 whole entry R132H) above, with R119P counted along it
T6 sequence (O75874 whole entry G131A/R132H): as the sequence (O75874 whole entry R132H) above, with G131A counted along it
T13 sequence (O75874 whole entry R132L/H315D): as the sequence (O75874 whole entry R132H) above, with H132L, H315D counted along it
T12 sequence (O75874 whole entry R132C/D279N): as the sequence (O75874 whole entry R132H) above, with H132C, D279N counted along it
T9 sequence (O75874 whole entry R119P/R132C): as the sequence (O75874 whole entry R132H) above, with R119P, H132C counted along it
T17 sequence (O75874 whole entry R132L/S280F): as the sequence (O75874 whole entry R132H) above, with H132L, S280F counted along it
T8 sequence (O75874 whole entry R132C/H315D): as the sequence (O75874 whole entry R132H) above, with H132C, H315D counted along it
T11 sequence (O75874 whole entry G131A/R132C): as the sequence (O75874 whole entry R132H) above, with G131A, H132C counted along it
T16 sequence (O75874 whole entry G131A/R132L): as the sequence (O75874 whole entry R132H) above, with G131A, H132L counted along it

`C=CC(=O)N1CCN([C@@H](CC2CC2)c2ccc([C@H](C)Nc3ncc4c(n3)N(CC)C(=O)OC4)cc2)CC1` [Compound A, 7-[[(1S)-1-[4-[(1S)-2-cyclopropyl-1-(4-prop-2-enoylpiperazin-1-yl)ethyl]phenyl]ethyl]amino]-1-ethyl-4H-pyrimido[4,5-d][1,3]oxazin-2-one] showed an IC50 [1] of 0.00032 µM, an IC50 [2] of 0.00258 µM and an IC50 [3] of 0.0125 µM. The IC50 [4] was 0.00011 µM, the IC50 [5] was 0.00113 µM and the IC50 [6] was 0.00153 µM. The IC50 [7] was 0.00149 µM, the IC50 [8] was 0.00252 µM and the IC50 [9] was 0.00589 µM. The IC50 [10] was 0.0138 µM, the IC50 [11] was 0.00133 µM and the IC50 [12] was 0.0105 µM. The IC50 [13] was 0.0235 µM, the IC50 [14] was 0.0256 µM and the IC50 [15] was 0.102 µM. It also gave an IC50 [16] of 0.00507 µM, an IC50 [17] of 0.0897 µM and an IC50 [18] of 0.0294 µM. It also gave an IC50 [19] of 0.0645 µM, an IC50 [20] of 0.179 µM and an IC50 [21] of 0.645 µM.
